Assay results as given in US8809372B2, “Pyridine derivatives” (Endo Pharmaceuticals, Inc., priority 2011, dated 2014).

Assays:
[1] = biological target: T1, human CYP17 in H295R adrenocortical carcinoma cells (Homo sapiens, UniProt P05093); assay: Cell-based human CYP17 inhibition assay, H295R cells; settings: 16 hours, read-out: CYP17 (human H295R adrenal cells)
T1 construct: H295R Adrenocortical carcinoma cells [NCI-H295A, ATCC Number CRL-2128, American Type Culture Collection; host or cells: H295R adrenocortical carcinoma cells
T1 sequence (P05093 1-508): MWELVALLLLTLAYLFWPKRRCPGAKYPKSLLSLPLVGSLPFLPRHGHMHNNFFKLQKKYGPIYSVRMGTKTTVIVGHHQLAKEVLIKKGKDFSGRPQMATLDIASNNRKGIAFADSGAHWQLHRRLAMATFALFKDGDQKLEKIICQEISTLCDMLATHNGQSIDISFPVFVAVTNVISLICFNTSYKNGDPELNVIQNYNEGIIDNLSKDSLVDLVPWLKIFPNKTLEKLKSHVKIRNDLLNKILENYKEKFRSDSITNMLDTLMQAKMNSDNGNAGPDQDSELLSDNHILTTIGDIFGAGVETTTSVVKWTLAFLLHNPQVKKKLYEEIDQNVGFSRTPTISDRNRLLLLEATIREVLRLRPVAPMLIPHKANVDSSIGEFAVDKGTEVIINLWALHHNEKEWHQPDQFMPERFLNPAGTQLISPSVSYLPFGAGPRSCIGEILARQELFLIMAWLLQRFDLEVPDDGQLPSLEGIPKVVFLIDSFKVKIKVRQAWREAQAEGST
In short: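 H295R cells or LNCaP cells stably transfected with full-length human CYP17A1 (30,000/well) incubated 16 h at 37 °C with ³H-17α-hydroxypregnenolone and compound (top 10 μM, 3-fold dilutions, up to 10 concentrations). Medium chloroform-extracted and charcoal-treated; aqueous-phase radioactivity counted by scintillation.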

[2] = biological target: T2, rat CYP17 (rat testicular microsomes) (Rattus norvegicus, UniProt P11715); assay: CYP17 inhibition assay in rat testicular microsomes; assay type: biochemical
T2 construct: Rat testis tissue was collected and disrupted with 30 strokes of a glass homogenizer; from tissue; host or cells: rat testis (microsomes)
T2 sequence (P11715 1-507): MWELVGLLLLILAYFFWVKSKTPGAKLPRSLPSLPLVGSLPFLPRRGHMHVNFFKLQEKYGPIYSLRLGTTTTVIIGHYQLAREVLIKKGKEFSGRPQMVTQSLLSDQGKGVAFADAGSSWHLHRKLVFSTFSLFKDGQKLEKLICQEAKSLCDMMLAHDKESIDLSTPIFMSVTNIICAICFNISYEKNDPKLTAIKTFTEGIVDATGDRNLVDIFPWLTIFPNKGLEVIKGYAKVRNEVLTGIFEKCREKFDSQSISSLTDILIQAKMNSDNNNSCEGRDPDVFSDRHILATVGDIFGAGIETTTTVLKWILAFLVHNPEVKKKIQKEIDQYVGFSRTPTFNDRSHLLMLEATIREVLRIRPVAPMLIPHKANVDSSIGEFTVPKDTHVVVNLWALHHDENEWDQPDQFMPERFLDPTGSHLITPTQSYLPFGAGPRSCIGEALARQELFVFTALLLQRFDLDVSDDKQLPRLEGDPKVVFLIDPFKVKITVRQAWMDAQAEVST
In short: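 Rat testicular microsomes (150–160 μg) or yeast microsomes expressing human CYP17 (1.7 pmol) react with ³H-17α-hydroxypregnenolone (1 μCi/reaction) and 325 μM NADPH in potassium phosphate buffer, pH 7.4. Compound is pre-incubated with substrate for 15 min, then the reaction runs 60 min at 37 °C. After chloroform extraction and charcoal treatment, aqueous radioactivity is measured by scintillation counting.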

IC50 [1] [nM] | IC50 [2] [nM] | Compound
201 to 10000 | 50 to 200 | CCCCC(=O)c1ccc(-c2ccc(C(C)(O)c3ccncc3)nc2)cn1 (centres unmarked) [Example 62, 1-(6′-(1-hydroxy-1-(pyridin-4-yl)ethyl)-[3,3′-bipyridin]-6-yl)pentan-1-one]
201 to 10000 | < 50 | CC(O)(c1ccncc1)c1cc(-c2ccc(F)cc2)n[nH]1 (centres unmarked) [Example 49, 1-(3-(4-fluorophenyl)-1H-pyrazol-5-yl)-1-(pyridin-4-yl)ethanol]
50 to 200 | 50 to 200 | Cn1cc(-c2ccc(C(C)(O)c3ccncc3)s2)ccc1=O (single isomer, unassigned; (+)) [Example 16, (+)-5-(5-(1-hydroxy-1-(pyridin-4-yl)ethyl)thiophen-2-yl)-1-methylpyridin-2(1H)-one]
50 to 200 | < 50 | CC(O)(c1ccncc1)c1cnc(-c2ccc(C#N)cc2)s1 (centres unmarked) [Example 56, 4-(5-(1-hydroxy-1-(pyridin-4-yl)ethyl)thiazol-2-yl)benzonitrile]
